For the assay, the target named is HiBit-KRAS^G12C (Homo sapiens, UniProt P01116, G12C). Kind of assay: HiBit degradation assay in SW1573 HiBit-KRas^G12C cells. To be noted: 0.1% DMSO, 24 hours; for DC50: SW1573 HiBit-KRas^G12C, read-out: KRas^G12C-HIBit (SW1573; 0.1% DMSO) DC50*; for Dmax: SW1573, SW1573 HiBit-KRas^G12C, read-out: KRas^G12C-HiBit (SW1573; 0.1% DMSO) Dmax**. The assay is classed as cell-based. More on the design: expressed in transfected cells; host or cells: SW1573 (clone E6), modified pcDNA3.1 vector, TK promoter. As to the method:
Reagents. SW1573 (CRL-2170) and MiaPaCa-2 (CRL-1420) cells were purchased from ATCC. Both cell lines are […] for the G12C mutation in KRAS. SW1573 cells were cultured in DMEM+F12+Glutamax (+Sodium Bicarbonate, +sodium pyruvate, Thermofisher scientific, #10565) supplemented with 10% FBS (Thermofisher scientific, #2060357) and 1% Antibiotic-Antimycotic (Thermofisher scientific, #15240096). MiaPaCa-2 cells were cultured in DMEM+Glutamax media (Thermofisher scientific, #10566) supplemented with 10% FBS (Thermofisher scientific, #2060357) and 1% Antibiotic-Antimycotic (Thermofisher scientific, #15240096). For degradation assays, 384 well plates were purchased from Corning (Corning® CellBIND® 384-well Flat Clear Bottom Black Polystyrene Microplates, Low Flange, #3770). Gambogic acid was purchased from Selleckchem (#S2448). Alamar blue was purchased from Thermofisher scientific (A50101) and used according to manufacturer instructions. The Nano-Glo® HiBit Lytic Detection System and Nano-Glo® HiBit Blotting System were purchased from Promega (#N3050 and #N2410) and used according to manufacturer instructions.
To create the SW1573 HiBit-KRAS^G12C cell line, the nucleotide sequence encoding the 11 amino acid HiBit tag from Promega (Schwinn, M. K. et al. (2018) CRISPR-mediated tagging of endogenous proteins with a luminescent peptide. ACS Chem. Biol. 13(2), 467-474) was appended to the N-terminus of the KRAS^G12C coding sequence. This synthesized DNA was cloned into a modified pcDNA3.1 vector under the control of the thymidine kinase (TK) promoter. This HiBit-KRAS^G12C expressing plasmid was transfected into parental SW1573 cells and colonies were selected using 400 μg/mL zeocin. The resulting clonal lines were screened for expression of HiBit-KRAS^G12C protein using Nano-Glo® HiBit Blotting System. A luminescent band of the correct size for HiBit-KRAS^G12C was detected in several clones. Clone E6 was selected for further studies.
Either SW1573 HiBit-KRas^G12C or MiaPaCa-2 HiBit-KRas^G12C cells were plated at 9000 cells/well in a 384 well plate (Corning #3770). Exemplary heterobifunctional molecules and positive controls were diluted in the appropriate cell media and applied to the plated cells resulting in a final concentration titration of 10 μM to 20 nM in either 0.1% or 0.5% dimethyl sulfoxide (DMSO). Gambogic acid was used as a positive control for cytotoxicity and titrated from 10 μM to 78 nM. All assays were performed in triplicate. Cells were treated with compounds for 24 hours at 37° C. in an incubator containing 5% CO2. Following treatment, alamar blue was used to determine if any compounds led to a loss in cell viability after 24 hours. The 10× alamar blue reagent was added to a final concentration of 1× as recommended by the manufacturer and cells were returned to the incubator for 4 hours. Plates were then allowed to equilibrate to room temperature and fluorescence was measured using a Perkin-Elmer EnVision. After completion of the fluorescence read, the liquid from each well was removed and the cells were washed with PBS. The Nano-Glo® HiBiT detection reagent was prepared according to the manufacturer's instructions and added to each well after the PBS wash was removed. Following incubation at room temperature for 45 minutes, the luminescence was read using the ultra-sensitive luminescence aperture on the Envision instrument.
Fluorescence values from the alamar blue treatment were normalized to the DMSO only control for each compound titration. We hypothesized that compounds that led to a ≥50% loss in cell viability of the KRAS-independent SW1573 HiBit-KRas^G12C cells were likely generally cytotoxic and loss of HiBit-KRAS^G12C signal from these compounds may be due to lower cell number and not specific KRAS^G12C degradation. These points were therefore excluded from the data analysis for degradation. […]
On the technique in general: With HiBiT, luminescence reflects the tagged protein that the partner subunit can reach.

HiBit-KRAS^G12C, sequence (P01116 1-186 isoform P01116-2 G12C limits assumed): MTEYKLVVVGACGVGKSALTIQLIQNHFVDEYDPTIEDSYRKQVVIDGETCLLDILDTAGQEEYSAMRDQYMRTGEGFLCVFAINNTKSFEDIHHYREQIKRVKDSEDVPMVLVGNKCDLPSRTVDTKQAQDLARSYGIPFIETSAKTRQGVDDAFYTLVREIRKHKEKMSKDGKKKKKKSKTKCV

Consider `C=CC(=O)N1CCN(c2nc(O[C@H](C)CN3CCC(CCCN4CCN(CC(=O)N[C@H](C(=O)N5C[C@H](O)C[C@H]5C(=O)N[C@@H](C)c5ccc(-c6scnc6C)cc5)C(C)(C)C)CC4)CC3)nc3c(F)c(-c4cc(O)cc5ccccc45)c(Cl)cc23)CC1` [Compound 56, (2S,4R)-1-[(2S)-2-{2-[4-(3-{1-[(2R)-2-{[6-chloro-8-fluoro-7-(3-hydroxynaphthalen-1-yl)-4-[4-(prop-2-enoyl)piperazin-1-yl]quinazolin-2-yl]oxy}propyl]piperidin-4-yl}propyl)piperazin-1-yl]acetamido}-3,3-dimethylbutanoyl]-4-hydroxy-N-[(1S)-1-[4-(4-methyl-1,3-thiazol-5-yl)phenyl]ethyl]pyrrolidine-2-carboxamide], for which the DC50 was more than 1000 nM.
As to `C=CC(=O)N1CCN(c2nc(O[C@H](C)CN3CCC(OCCOCC(=O)N[C@H](C(=O)N4C[C@H](O)C[C@H]4C(=O)N[C@@H](C)c4ccc(-c5scnc5C)cc4)C(C)(C)C)CC3)nc3c2CCN(c2cccc4ccccc24)C3)C[C@@H]1CC#N` [Compound 58, (2S,4R)-1-[(2S)-2-{2-[2-({1-[(2R)-2-({4-[(3S)-3-(cyanomethyl)-4-(prop-2-enoyl)piperazin-1-yl]-7-(naphthalen-1-yl)-5H,6H,7H,8H-pyrido[3,4-d]pyrimidin-2-yl}oxy)propyl]piperidin-4-yl}oxy)ethoxy]acetamido}-3,3-dimethylbutanoyl]-4-hydroxy-N-[(1S)-1-[4-(4-methyl-1,3-thiazol-5-yl)phenyl]ethyl]pyrrolidine-2-carboxamide], the DC50 is more than 1000 nM.
The same measure, in the same setting: for `C=CC(=O)N1CCN(c2nc(O[C@H](C)CN3CCC(OCCOCCOCCOc4cc(-c5scnc5C)ccc4CNC(=O)[C@@H]4C[C@@H](O)CN4C(=O)[C@@H](c4cc(C)no4)C(C)C)CC3)nc3c(F)c(-c4cc(O)cc5ccccc45)c(Cl)cc23)CC1` [Compound 70, (2S,4R)-N-{[2-(2-{2-[2-({1-[(2R)-2-{[6-chloro-8-fluoro-7-(3-hydroxynaphthalen-1-yl)-4-[4-(prop-2-enoyl)piperazin-1-yl]quinazolin-2-yl]oxy}propyl]piperidin-4-yl}oxy)ethoxy]ethoxy}ethoxy)-4-(4-methyl-1,3-thiazol-5-yl)phenyl]methyl}-4-hydroxy-1-[(2R)-3-methyl-2-(3-methyl-1,2-oxazol-5-yl)butanoyl]pyrrolidine-2-carboxamide] the value was more than 1000 nM.
As for `C=CC(=O)N1CCN(c2nc(O[C@H](C)CN3CCC(OCCOCCOc4cc(-c5scnc5C)ccc4CNC(=O)[C@@H]4C[C@@H](O)CN4C(=O)[C@H](c4cc(C)no4)C(C)C)CC3)nc3c(F)c(-c4cc(O)cc5ccccc45)c(Cl)cc23)CC1` [Compound 71, (2S,4R)-N-[(2-{2-[2-({1-[(2R)-2-{[6-chloro-8-fluoro-7-(3-hydroxynaphthalen-1-yl)-4-[4-(prop-2-enoyl)piperazin-1-yl]quinazolin-2-yl]oxy}propyl]piperidin-4-yl}oxy)ethoxy]ethoxy}-4-(4-methyl-1,3-thiazol-5-yl)phenyl)methyl]-4-hydroxy-1-[(2S)-3-methyl-2-(3-methyl-1,2-oxazol-5-yl)butanoyl]pyrrolidine-2-carboxamide], the Dmax is less than 35% and the DC50 lay in the range of 100 to 1000 nM.
For `C=CC(=O)N1CCN(c2nc(O[C@H](C)CN3CCC(OCCOCCOc4cc(-c5scnc5C)ccc4CNC(=O)[C@@H]4C[C@@H](O)CN4C(=O)[C@@H](c4cc(C)no4)C(C)C)CC3)nc3c(F)c(-c4cc(O)cc5ccccc45)c(Cl)cc23)CC1` [Compound 72, (2S,4R)-N-[(2-{2-[2-({1-[(2R)-2-{[6-chloro-8-fluoro-7-(3-hydroxynaphthalen-1-yl)-4-[4-(prop-2-enoyl)piperazin-1-yl]quinazolin-2-yl]oxy}propyl]piperidin-4-yl}oxy)ethoxy]ethoxy}-4-(4-methyl-1,3-thiazol-5-yl)phenyl)methyl]-4-hydroxy-1-[(2R)-3-methyl-2-(3-methyl-1,2-oxazol-5-yl)butanoyl]pyrrolidine-2-carboxamide], the DC50 was more than 1000 nM.
For `C=CC(=O)N1CCN(c2nc(OC[C@@H]3C[C@@H](OCCOCCOCCOCCOCCOCCOCCOCCOCCOCCOCC(=O)N[C@H](C(=O)N4C[C@H](O)C[C@H]4C(=O)N[C@@H](C)c4ccc(-c5scnc5C)cc4)C(C)(C)C)CN3C)nc3c2CCN(c2cccc4ccccc24)C3)C[C@@H]1CC#N` [Compound 73, (2S,4R)-1-[(2S)-2-(32-{[(3R,5S)-5-[({4-[(3S)-3-(cyanomethyl)-4-(prop-2-enoyl)piperazin-1-yl]-7-(naphthalen-1-yl)-5H,6H,7H,8H-pyrido[3,4-d]pyrimidin-2-yl}oxy)methyl]-1-methylpyrrolidin-3-yl]oxy}-3,6,9,12,15,18,21,24,27,30-decaoxadotriacontanamido)-3,3-dimethylbutanoyl]-4-hydroxy-N-[(1S)-1-[4-(4-methyl-1,3-thiazol-5-yl)phenyl]ethyl]pyrrolidine-2-carboxamide], the DC50 is more than 1000 nM.
Same read-out and setting: for `C=CC(=O)N1CCN(c2nc(OC[C@@H]3C[C@@H](OCCOCCOCCOCCOCCOCCOCCOCCOCC(=O)N[C@H](C(=O)N4C[C@H](O)C[C@H]4C(=O)N[C@@H](C)c4ccc(-c5scnc5C)cc4)C(C)(C)C)CN3C)nc3c2CCN(c2cccc4ccccc24)C3)C[C@@H]1CC#N` [Compound 74, (2S,4R)-1-[(2S)-2-(26-{[(3R,5S)-5-[({4-[(3S)-3-(cyanomethyl)-4-(prop-2-enoyl)piperazin-1-yl]-7-(naphthalen-1-yl)-5H,6H,7H,8H-pyrido[3,4-d]pyrimidin-2-yl}oxy)methyl]-1-methylpyrrolidin-3-yl]oxy}-3,6,9,12,15,18,21,24-octaoxahexacosanamido)-3,3-dimethylbutanoyl]-4-hydroxy-N-[(1S)-1-[4-(4-methyl-1,3-thiazol-5-yl)phenyl]ethyl]pyrrolidine-2-carboxamide] the value was more than 1000 nM.
As to `C=CC(=O)N1CCN(c2nc(O[C@H](C)CN3CCC(OCCOCCOCCOCCOc4cc(-c5scnc5C)ccc4CNC(=O)[C@@H]4C[C@@H](O)CN4C(=O)[C@H](c4cc(C)no4)C(C)C)CC3)nc3c(F)c(-c4cc(O)cc5ccccc45)c(Cl)cc23)CC1` [Compound 75, (2S,4R)-N-({2-[2-(2-{2-[2-({1-[(2R)-2-{[6-chloro-8-fluoro-7-(3-hydroxynaphthalen-1-yl)-4-[4-(prop-2-enoyl)piperazin-1-yl]quinazolin-2-yl]oxy}propyl]piperidin-4-yl}oxy)ethoxy]ethoxy}ethoxy)ethoxy]-4-(4-methyl-1,3-thiazol-5-yl)phenyl}methyl)-4-hydroxy-1-[(2S)-3-methyl-2-(3-methyl-1,2-oxazol-5-yl)butanoyl]pyrrolidine-2-carboxamide], the Dmax was less than 35% and the DC50 is more than 1000 nM.

These data come from patent US20220370416A1, “COMPOUNDS AND METHODS FOR TARGETED DEGRADATION OF KRAS” (Arvinas Operations, Inc., priority 2020, published 2022).
